Experiments:
[1] = test system: Rattus norvegicus; assay: Reduction in serum uric acid level in po dosed acute hyperuricemia state Sprague-Dawley rat model assessed as SUA level (reference value: 955.20 +/- 85.56 uM); assay type: functional
[2] = test system: Rattus norvegicus; assay: Reduction in serum uric acid level in po dosed acute hyperuricemia state Sprague-Dawley rat model assessed as SUA level by measuring decrease ratio relative to control; assay type: functional; set-up: scale not given: the % may be the effect or the level left
[3] = Acute toxicity in Kunming mouse assessed as fatality rate at 500 mg/kg, po administered as single dose monitored for 7 days; assay type: organism-based; details: Kunming, in vivo, time 7 day, read-out: Activity
[4] = Acute toxicity in Kunming mouse assessed as fatality rate at 1000 mg/kg, po administered as single dose monitored for 7 days; assay type: organism-based; details: Kunming, in vivo, time 7 day, read-out: Activity
[5] = Subacute toxicity in Kunming mouse assessed as abnormal behavior at 25 mg/kg, po administered every other day for 14 days; assay type: organism-based; details: in vivo, 336 h, time 14 day
[6] = Toxicity in Kunming female mouse assessed as coagulation necrosis of hepatocyte at 100 mg/kg, po administered every other day for 14 days by H and E staining based assay; assay type: organism-based; details: 336 h, time 14 day
[7] = test system: Mus musculus; assay: Reduction in serum uric acid level in acute hyperuricemia state Kunming mouse model assessed as SUA level at 2 mg/kg, po (reference value: 1037 +/- 106.59 uM); assay type: functional
[8] = species on record: Mus musculus; assay: Reduction in serum uric acid level in chronic hyperuricemia state Kunming mouse model assessed as SUA level (reference value: 660.33 +/- 103.57 uM); assay type: functional
[9] = species on record: Mus musculus; assay: Reduction in serum uric acid level in acute hyperuricemia state Kunming mouse model assessed as SUA level; assay type: functional
[10] = species on record: Mus musculus; assay: Reduction in serum uric acid level in chronic hyperuricemia state Kunming mouse model assessed as SUA level by measuring decrease ratio relative to control; assay type: functional; set-up: scale not given: the % may be the effect or the level left
[11] = target: Xanthine dehydrogenase/oxidase (Bos taurus, UniProt P80457); assay: Inhibition of bovine XOD using xanthine as substrate assessed as inhibitory ratio at 10 uM by spectrophotometric analysis relative to control; details: cattle
[12] = test system: Mus musculus; assay: Reduction in serum uric acid level in acute hyperuricemia state Kunming mouse model assessed as SUA level by measuring decrease ratio at 2 mg/kg, po relative to control; assay type: functional; set-up: scale not given: the % may be the effect or the level left
[13] = Toxicity in Kunming female mouse assessed as renal injury at 100 mg/kg, po administered every other day for 14 days by H and E staining based assay; assay type: organism-based; details: in vivo, 336 h, time 14 day
[14] = Toxicity in Kunming female mouse assessed as balloon like degeneration of liver at 100 mg/kg, po administered every other day for 14 days by H and E staining based assay; assay type: organism-based; details: in vivo, 336 h, time 14 day
[15] = species on record: Mus musculus; assay: Reduction in serum uric acid level in acute hyperuricemia state Kunming mouse model assessed as SUA level by measuring decrease ratio relative to control; assay type: functional; set-up: concentration or dose not given beside the values

Chain of Xanthine dehydrogenase/oxidase (P80457 whole entry): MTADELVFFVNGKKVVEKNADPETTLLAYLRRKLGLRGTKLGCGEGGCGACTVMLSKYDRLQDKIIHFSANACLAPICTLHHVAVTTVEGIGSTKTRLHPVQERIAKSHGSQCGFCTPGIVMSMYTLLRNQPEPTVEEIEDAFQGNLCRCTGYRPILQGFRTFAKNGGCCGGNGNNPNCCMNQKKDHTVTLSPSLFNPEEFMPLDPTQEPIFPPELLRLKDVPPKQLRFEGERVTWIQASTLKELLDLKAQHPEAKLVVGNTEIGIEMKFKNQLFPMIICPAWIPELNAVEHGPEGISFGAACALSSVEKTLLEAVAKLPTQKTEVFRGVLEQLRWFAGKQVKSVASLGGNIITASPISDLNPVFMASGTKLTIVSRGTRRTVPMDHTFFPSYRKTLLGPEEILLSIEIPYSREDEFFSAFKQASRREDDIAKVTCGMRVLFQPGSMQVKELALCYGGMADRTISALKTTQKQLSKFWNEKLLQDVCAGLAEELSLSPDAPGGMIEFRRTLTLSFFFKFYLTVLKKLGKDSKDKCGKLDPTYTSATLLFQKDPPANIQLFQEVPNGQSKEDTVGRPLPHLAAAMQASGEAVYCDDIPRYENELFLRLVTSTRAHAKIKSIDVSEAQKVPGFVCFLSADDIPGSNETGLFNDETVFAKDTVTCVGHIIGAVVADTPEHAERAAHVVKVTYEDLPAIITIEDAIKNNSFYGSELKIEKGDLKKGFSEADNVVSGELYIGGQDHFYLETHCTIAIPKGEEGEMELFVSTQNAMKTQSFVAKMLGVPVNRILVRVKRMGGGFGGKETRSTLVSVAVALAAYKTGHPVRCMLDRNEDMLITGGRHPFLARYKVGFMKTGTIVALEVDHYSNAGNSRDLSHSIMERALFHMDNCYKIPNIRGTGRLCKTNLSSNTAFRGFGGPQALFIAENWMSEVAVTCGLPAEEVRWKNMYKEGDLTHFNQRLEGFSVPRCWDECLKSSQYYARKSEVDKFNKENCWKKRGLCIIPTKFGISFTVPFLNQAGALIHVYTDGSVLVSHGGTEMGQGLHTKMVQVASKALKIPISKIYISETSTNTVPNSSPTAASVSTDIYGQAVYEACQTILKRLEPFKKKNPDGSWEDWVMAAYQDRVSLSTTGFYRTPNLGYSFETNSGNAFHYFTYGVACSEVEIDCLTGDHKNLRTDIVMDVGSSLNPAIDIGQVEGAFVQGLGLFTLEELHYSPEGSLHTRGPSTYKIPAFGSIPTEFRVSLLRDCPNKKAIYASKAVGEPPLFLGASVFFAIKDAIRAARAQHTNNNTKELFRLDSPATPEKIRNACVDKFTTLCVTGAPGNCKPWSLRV

O=C(O)CSc1nnc(Br)n1-c1ccc(C2CC2)c2ccccc12
Activity [1]: 685.6 µM
Activity [2]: 31.77%
mortality at 168 h [3]: 20%
mortality at 168 h [4]: 60%
Activity [5]: Non-Toxic
Activity [6]: Toxic
Activity [7]: 706.25 µM
Activity [8]: 476 µM
Activity [9]: 841.2 µM
Activity [10]: 33.56%
inhibition at 10 µM [11]: 5.72%
Activity [12]: 35.56%
Activity [13]: Toxic
Activity [14]: Toxic
Activity [15]: 28.5%

— ChEMBL document CHEMBL5528083, “Discovery of a Novel Thienopyrimidine Compound as a Urate Transporter 1 and Glucose Transporter 9 Dual Inhibitor with Improved Efficacy and Favorable Druggability” (J Med Chem, 2024)
